Measurements published in patent US11337971B2, “Dopamine D3 receptor selective antagonists/partial agonists and uses thereof” (THE UNITED STATES OF AMERICA, AS REPRESENTED BY THE …, priority 2018, dated 2022).
Where two headings read alike, the source gives them in different places.

Assays:
[1] = target: human D2R (Homo sapiens (Human), UniProt P14416); assay: Radioligand competition binding, [3H]N-methylspiperone, HEK293 membranes expressing human D2R; conditions: read-out: D2R Ki ± SEM
Description: (§1) Binding at dopamine D2-like receptors was determined using previously described methods. […] Upon reaching 80-90% confluence, cells were harvested using pre-mixed Earle's Balanced Salt Solution (EBSS) with […] EDTA (Life Technologies) and centrifuged at 3000 rpm for 10 min at 21° C. The supernatant was removed and the pellet was resuspended in 10 mL hypotonic lysis buffer (5 mM MgCl2.6H2O, 5 mM Tris, pH 7.4 at 4° C.) and centrifuged at 20,000 rpm for 30 min at 4° C. The pellet was then resuspended in fresh EBSS buffer made from 8.7 g/L Earle's Balanced Salts without phenol red (US Biological, Salem, Mass.), 2.2 g/L sodium bicarbonate, pH to 7.4. A Bradford protein assay (Bio-Rad, Hercules, Calif.) was used to determine the protein concentration and membranes were diluted to 500 μg/mL and stored in a −80° C. freezer for later use.
(§2) Radioligand competition binding experiments were conducted using thawed membranes. Test compounds were freshly dissolved in 30% DMSO and 70% H2O to a stock concentration of 100 μM. To assist the solubilization of free-base compounds, 10 μl of glacial acetic acid was added along with the DMSO. Each test compound was then diluted into 13 half-log serial dilutions using 30% DMSO vehicle; final test concentrations ranged from 10 μM to 10 pM. Previously frozen membranes were diluted in fresh EBSS to a 100 μg/mL (for hD2R or hD3R) or 200 μg/mL (hD4R) stock for binding. […] buffer with 0.2 mM sodium metabisulfite, 50 μl of diluted test compound, 100 μl of membranes (10 μg total protein for hD2R or hD3R, 20 μg total protein for hD4R), and 50 μl of [^3H]N-methylspiperone (0.4 nM final concentration; Perkin Elmer). Nonspecific binding was determined using 10 μM butaclamol (Sigma-Aldrich, St. Louis, Mo.) and total binding was determined with 30% DMSO vehicle. All compound dilutions were tested in triplicate and the reaction incubated for one hour at room temperature. The reaction was terminated by filtration through Whatman GF/B filters, presoaked for one hour in 0.5% polyethylenimine, using a Brandel R48 filtering manifold (Brandel Instruments, Gaithersburg, Md.). The filters were washed 3 times with 3 mL of ice cold EBSS buffer and transferred to scintillation vials. […] IC50 values for each compound were determined from dose-response curves and Ki values were calculated using the Cheng-Prusoff equation; these analyses were performed using GraphPad Prism version 5.00 for Windows (GraphPad Software, San Diego, Calif.). Reported Ki values were determined from least three independent experiments.
(§3) The binding affinities of the compounds were evaluated by performing competition binding studies with [^3H]N-methylspiperone using membranes prepared from HEK293 cells expressing either the human D2R or D3R.

[2] = target: 5-HT1A (Homo sapiens (Human), UniProt P08908); assay: 5-HT1A [3H]-8-OH-DPAT binding; conditions: read-out: 5-HT1A [3H]-8-OH-DPAT Ki ± SEM
5-HT1A, sequence (P08908 whole entry, species assumed): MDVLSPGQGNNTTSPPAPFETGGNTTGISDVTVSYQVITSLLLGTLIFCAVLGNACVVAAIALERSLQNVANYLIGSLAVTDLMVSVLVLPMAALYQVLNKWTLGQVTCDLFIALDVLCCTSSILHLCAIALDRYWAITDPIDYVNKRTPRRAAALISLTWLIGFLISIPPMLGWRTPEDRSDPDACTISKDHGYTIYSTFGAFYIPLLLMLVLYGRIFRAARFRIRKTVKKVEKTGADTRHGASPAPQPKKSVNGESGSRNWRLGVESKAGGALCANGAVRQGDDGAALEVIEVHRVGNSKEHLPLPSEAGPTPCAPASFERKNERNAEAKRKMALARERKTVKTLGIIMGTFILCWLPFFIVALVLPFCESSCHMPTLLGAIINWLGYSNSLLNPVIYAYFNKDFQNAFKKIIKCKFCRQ

[3] = target: 5-HT2C (Homo sapiens (Human), UniProt P28335); assay: 5-HT2C [125I]DOI binding; conditions: read-out: 5-HT2C [125I]DOI Ki ± SEM
5-HT2C, sequence (P28335 33-458, species assumed): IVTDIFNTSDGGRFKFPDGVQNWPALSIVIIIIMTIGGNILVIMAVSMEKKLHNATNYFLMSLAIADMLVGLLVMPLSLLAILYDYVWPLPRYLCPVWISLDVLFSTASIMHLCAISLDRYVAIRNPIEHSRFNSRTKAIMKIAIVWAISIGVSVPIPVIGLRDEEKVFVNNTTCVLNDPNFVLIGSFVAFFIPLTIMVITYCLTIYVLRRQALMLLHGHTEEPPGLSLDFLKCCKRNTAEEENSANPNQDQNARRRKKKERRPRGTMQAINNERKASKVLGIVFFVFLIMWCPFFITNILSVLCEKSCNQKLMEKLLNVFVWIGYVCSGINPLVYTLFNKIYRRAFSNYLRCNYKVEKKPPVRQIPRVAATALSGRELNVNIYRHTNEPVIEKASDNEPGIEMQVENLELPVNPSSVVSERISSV

[4] = target: 5-HT2A (Homo sapiens (Human), UniProt P28223); assay: 5-HT2A [125I]DOI binding; conditions: read-out: 5-HT2A [125I]DOI Ki ± SEM
5-HT2A, sequence (P28223 whole entry, species assumed): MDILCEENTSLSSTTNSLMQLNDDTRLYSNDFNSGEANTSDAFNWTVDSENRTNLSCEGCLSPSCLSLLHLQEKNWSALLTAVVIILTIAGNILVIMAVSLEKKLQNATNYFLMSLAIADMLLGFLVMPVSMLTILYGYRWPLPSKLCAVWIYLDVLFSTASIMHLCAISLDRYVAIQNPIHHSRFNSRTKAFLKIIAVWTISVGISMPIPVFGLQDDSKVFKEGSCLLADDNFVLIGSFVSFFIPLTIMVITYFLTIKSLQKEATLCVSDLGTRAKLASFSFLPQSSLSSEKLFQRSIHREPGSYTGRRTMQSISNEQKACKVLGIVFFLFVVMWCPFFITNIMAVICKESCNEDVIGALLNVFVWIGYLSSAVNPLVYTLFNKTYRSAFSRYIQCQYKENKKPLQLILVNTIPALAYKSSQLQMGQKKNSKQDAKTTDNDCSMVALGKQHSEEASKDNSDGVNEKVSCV

[5] = target: human D4R (Homo sapiens (Human), UniProt P21917); assay: Radioligand competition binding, [3H]N-methylspiperone, HEK293 membranes expressing human D4R; conditions: Table 1A; for Ki: [3H]N-methylspiperone, read-out: D4R Ki ± SEM; for D4/D2 / D4/D3: ratio of Ki values
human D4R, sequence (P21917 whole entry): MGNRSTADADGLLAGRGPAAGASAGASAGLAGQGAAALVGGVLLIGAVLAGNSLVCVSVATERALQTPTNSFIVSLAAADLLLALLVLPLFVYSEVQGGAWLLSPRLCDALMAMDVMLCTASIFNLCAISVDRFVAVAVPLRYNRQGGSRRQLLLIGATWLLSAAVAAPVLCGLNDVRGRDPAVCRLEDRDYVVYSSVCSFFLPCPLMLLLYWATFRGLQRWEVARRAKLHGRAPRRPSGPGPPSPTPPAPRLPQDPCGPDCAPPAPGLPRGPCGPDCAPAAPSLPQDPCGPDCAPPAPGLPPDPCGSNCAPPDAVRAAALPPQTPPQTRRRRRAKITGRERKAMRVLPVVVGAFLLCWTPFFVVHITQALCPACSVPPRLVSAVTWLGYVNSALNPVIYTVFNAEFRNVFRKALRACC
Description: Binding at dopamine D2-like receptors was determined using previously described methods. (Chen et al. “Tranylcypromine substituted cis-hydroxycyclobutylnaphthamides as potent and selective dopamine D(3) receptor antagonists.” J. Med. Chem. 2014, 57, 4962-4968) Membranes were prepared from HEK293 cells expressing human D2R, D3R or D4R, grown in a 50:50 mix of DMEM and Ham's F12 culture media, supplemented with 20 mM HEPES, 2 mM L-glutamine, 0.1 mM non-essential amino acids, 1× antibiotic/antimycotic, 10% heat-inactivated fetal bovine serum, and 200 μg/mL hygromycin (Life Technologies, Grand Island, N.Y.) and kept in an incubator at 37° C. and 5% CO2. Upon reaching 80-90% confluence, cells were harvested using pre-mixed Earle's Balanced Salt Solution (EBSS) with […] EDTA (Life Technologies) and centrifuged at 3000 rpm for 10 min at 21° C. The supernatant was removed and the pellet was resuspended in 10 mL hypotonic lysis buffer (5 mM MgCl2.6H2O, 5 mM Tris, pH 7.4 at 4° C.) and centrifuged at 20,000 rpm for 30 min at 4° C. The pellet was then resuspended in fresh EBSS buffer made from 8.7 g/L Earle's Balanced Salts without phenol red (US Biological, Salem, Mass.), 2.2 g/L sodium bicarbonate, pH to 7.4. A Bradford protein assay (Bio-Rad, Hercules, Calif.) was used to determine the protein concentration and membranes were diluted to 500 μg/mL and stored in a −80° C. freezer for later use.
Radioligand competition binding experiments were conducted using thawed membranes. Test compounds were freshly dissolved in 30% DMSO and 70% H2O to a stock concentration of 100 μM. To assist the solubilization of free-base compounds, 10 μl of glacial acetic acid was added along with the DMSO. Each test compound was then diluted into 13 half-log serial dilutions using 30% DMSO vehicle; final test concentrations ranged from 10 μM to 10 pM. Previously frozen membranes were diluted in fresh EBSS to a 100 μg/mL (for hD2R or hD3R) or 200 μg/mL (hD4R) stock for binding. Radioligand competition experiments were conducted in glass tubes containing 300 μl fresh EBSS buffer with 0.2 mM sodium metabisulfite, 50 μl of diluted test compound, 100 μl of membranes (10 μg total protein for hD2R or hD3R, 20 μg total protein for hD4R), and 50 μl of [^3H]N-methylspiperone (0.4 nM final concentration; Perkin Elmer). Nonspecific binding was determined using 10 μM butaclamol (Sigma-Aldrich, St. Louis, Mo.) and total binding was determined with 30% DMSO vehicle. All compound dilutions were tested in triplicate and the reaction incubated for one hour at room temperature. The reaction was terminated by filtration through Whatman GF/B filters, presoaked for one hour in 0.5% polyethylenimine, using a Brandel R48 filtering manifold (Brandel Instruments, Gaithersburg, Md.). The filters were washed 3 times with 3 mL of ice cold EBSS buffer and transferred to scintillation vials. 3 mL CytoScint liquid scintillation cocktail (MP Biomedicals, Solon, Ohio) was added and vials were counted using a Perkin Elmer Tri-Carb 2910 TR liquid scintillation counter (Waltham, Mass.). IC50 values for each compound were determined from dose-response curves and Ki values were calculated using the Cheng-Prusoff equation; these analyses were performed using GraphPad Prism version 5.00 for Windows (GraphPad Software, San Diego, Calif.). Reported Ki values were determined from least three independent experiments.

[6] = Phase I metabolic stability in rat liver microsomes; format: in vitro ADME; conditions: phase I metabolic stability in rat liver microsomes
Source text: Rat Liver Microsome Metabolic Stability: Test compounds including 3-F analogues (C4a, C4b, C5a, C5b) and 29, 19 as well as the R-, S-enantiomers of C4a, C5a, 29 and 19 were screened for phase I metabolic stability in rat liver microsomes.

[7] = target: human D3R (Homo sapiens (Human), UniProt P35462); assay: Radioligand competition binding, [3H]N-methylspiperone, HEK293 membranes expressing human D3R; conditions: for Ki: read-out: D3R Ki ± SEM; for D2/D3: ratio of Ki values
human D3R, sequence (P35462 whole entry): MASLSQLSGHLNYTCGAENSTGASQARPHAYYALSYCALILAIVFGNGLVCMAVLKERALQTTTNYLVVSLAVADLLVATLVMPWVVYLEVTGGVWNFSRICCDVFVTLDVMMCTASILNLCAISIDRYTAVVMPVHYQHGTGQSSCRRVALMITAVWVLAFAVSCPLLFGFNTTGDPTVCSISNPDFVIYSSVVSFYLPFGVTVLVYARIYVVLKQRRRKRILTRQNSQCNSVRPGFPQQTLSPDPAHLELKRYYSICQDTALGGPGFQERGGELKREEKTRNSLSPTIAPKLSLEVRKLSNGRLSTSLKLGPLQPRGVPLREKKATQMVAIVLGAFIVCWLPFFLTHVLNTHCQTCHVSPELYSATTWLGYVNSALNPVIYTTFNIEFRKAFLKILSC
Description: as §1, §2, §3

[8] = target: human dopamine D3R (Homo sapiens (Human), UniProt P35462); assay: D3R mitogenesis assay: stimulation or inhibition of quinpirole-stimulated mitogenesis in CHO cells; format: cell-based; conditions: inhibition of quinpirole-stimulated mitogenesis
human dopamine D3R, sequence (P35462 whole entry): as above

[9] = Table 1A, HEK 293 cells transfected with hD2LR, [3H]N-methylspiperone
[10] = Table 1B, [3H]-N-methylspiperone competition, D2LR, 96-well plates
[11] = Table 1B, [3H]-N-methylspiperone competition, 96-well plates
[12] = Table 2b, read-out: Antagonist IC50 ± S.E.M.
[13] = Table 1A, HEK 293 cells transfected with hD3R, [3H]N-methylspiperone
[14] = Table 2a, read-out: Antagonist IC50 ± SEM

human D2R, sequence (P14416 whole entry): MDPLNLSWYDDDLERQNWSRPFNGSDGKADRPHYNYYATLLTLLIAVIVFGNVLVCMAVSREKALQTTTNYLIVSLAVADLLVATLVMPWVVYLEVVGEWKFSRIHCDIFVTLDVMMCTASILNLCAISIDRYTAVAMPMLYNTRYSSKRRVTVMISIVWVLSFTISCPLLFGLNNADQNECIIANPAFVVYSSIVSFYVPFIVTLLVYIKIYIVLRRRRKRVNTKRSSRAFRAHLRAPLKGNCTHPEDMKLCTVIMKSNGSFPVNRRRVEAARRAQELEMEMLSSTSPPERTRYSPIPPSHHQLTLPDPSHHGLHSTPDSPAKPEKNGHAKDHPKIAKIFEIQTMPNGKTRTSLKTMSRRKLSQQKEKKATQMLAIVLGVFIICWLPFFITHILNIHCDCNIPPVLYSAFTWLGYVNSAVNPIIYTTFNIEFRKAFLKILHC

| SMILES | Ki [1, 9] | Ki [1, 10] | Ki ([1]; Table 1C) | Ki ([2]; Table 3a) | Ki ([3]; Table 3a) | Ki ([4]; Table 3a) | Ki [5] | Ki ([2]; Table 3b) | % intact/parent remaining [6] | Ki [7, 11] | D2/D3 ([7]; Table 1B) | D2/D3 ([7]; Table 1C) | Ki ([7]; Table 1C) | IC50 [8, 12] | Ki ([4]; Table 3b) | Ki [7, 13] | D2/D3 ([7]; Table 1A) | IC50 [8, 14] | D4/D2 [5] | D4/D3 [5] | other results |
| --- | --- | --- | --- | --- | --- | --- | --- | --- | --- | --- | --- | --- | --- | --- | --- | --- | --- | --- | --- | --- | --- |
| CCc1cccc(N2CCN(CC(O)CCNC(=O)c3cc4ccccc4[nH]3)CC2)c1Cl (racemic) [Compound 19, N-(4-(4-(2-chloro-3-ethylphenyl)piperazin-1-yl)-3-hydroxybutyl)-1H-indole-2-carboxamide] | 151 ± 25.4 nM | 119 ± 11.1 nM | 132 ± 12.7 nM | 880 ± 160 nM | 113 ± 33 nM | 28.1 ± 9.7 nM | 5520 ± 1660 nM | – | – | – | – | – | – | – | – | – | – | – | – | – | – |
| CCc1cc(Cl)c(OC)c(N2CCN(CCCCNC(=O)c3cc4ccccc4[nH]3)CC2)c1 [Compound 28, N-(4-(4-(3-Chloro-5-ethyl-2-methoxyphenyl)piperazin-1-yl)butyl)-1H-indole-2-carboxamide] | 27.8 ± 6.71 nM | – | – | 2330 ± 700 nM | 144 ± 37 nM | 60.1 ± 9.5 nM | 1040 ± 279 nM | – | – | – | – | – | – | – | – | 0.341 ± 0.0312 nM | 82 | 330 ± 100 nM | 38 | 3065 | – |
| CCc1cc(Cl)c(OC)c(N2CCN(CCCCNC(=O)c3cc4ccccc4o3)CC2)c1 [Compound 30, N-(4-(4-(3-Chloro-5-ethyl-2-methoxyphenyl)piperazin-1-yl)butyl)benzofuran-2-carboxamide] | 137 ± 9 nM | – | – | 560 ± 170 nM | 55 ± 17 nM | 25 ± 6.6 nM | 714 ± 293 nM | – | – | – | – | – | – | – | – | 3.19 ± 0.268 nM | 43 | 420 ± 130 nM | 5.2 | 224 | – |

Further lines, with some results ahead:

| Ki [1, 9] | Ki [1, 10] | Ki ([1]; Table 1C) | Ki ([2]; Table 3a) | Ki ([3]; Table 3a) | Ki ([4]; Table 3a) | Ki [5] | Ki ([2]; Table 3b) | % intact/parent remaining [6] | Ki [7, 11] | D2/D3 ([7]; Table 1B) | D2/D3 ([7]; Table 1C) | Ki ([7]; Table 1C) | IC50 [8, 12] | Ki ([4]; Table 3b) | Ki [7, 13] | D2/D3 ([7]; Table 1A) | IC50 [8, 14] | D4/D2 [5] | D4/D3 [5] | SMILES | other results |
| --- | --- | --- | --- | --- | --- | --- | --- | --- | --- | --- | --- | --- | --- | --- | --- | --- | --- | --- | --- | --- | --- |
| – | 27100 ± 11600 nM | 20800 ± 7060 nM | – | – | – | – | 9500 ± 3000 nM | ~75% | 28 ± 5.53 nM | 968 | 746 | 27.9 ± 5.64 nM | 510 ± 130 nM | 6600 ± 1400 nM | – | – | – | – | – | CCc1cc(Cl)c(OC)c(N2CCN(CC(F)CCNC(=O)c3cc4ccccc4[nH]3)CC2)c1 (racemic) [Compound C4a, N-(4-(4-(3-chloro-5-ethyl-2-methoxyphenyl)piperazin-1-yl)-3-fluorobutyl)-1H-indole-2-carboxamide] | – |
| – | 9740 ± 2100 nM | 10800 ± 2290 nM | – | – | – | – | 2660 ± 570 nM | 12% | 89.9 ± 12.3 nM | 108 | 108 | 99.9 ± 13.4 nM | 490 ± 150 nM | 2990 ± 530 nM | – | – | – | – | – | CCc1cc(Cl)c(OC)c(N2CCN(CC(F)CCNC(=O)c3cc4ccccc4o3)CC2)c1 (racemic) [Compound C4b, N-(4-(4-(3-chloro-5-ethyl-2-methoxyphenyl)piperazin-1-yl)-3-fluorobutyl)benzofuran-2-carboxamide] | Ki ([3]; Table 3b): 1780 ± 390 nM |
| – | 124 ± 15.8 nM | 247 ± 57.4 nM | – | – | – | – | 910 ± 120 nM | 38% | 0.482 ± 0.15 nM | 257 | 327 | 0.756 ± 0.185 nM | 95 ± 31 nM | 620 ± 120 nM | – | – | – | – | – | CCc1cccc(N2CCN(CC(F)CCNC(=O)c3cc4ccccc4[nH]3)CC2)c1Cl (racemic) [Compound C5a, N-(4-(4-(2-chloro-3-ethylphenyl)piperazin-1-yl)-3-fluorobutyl)-1H-indole-2-carboxamide] | Ki ([3]; Table 3b): 580 ± 160 nM; D3R selectivity over D2R (D2R/D3R) [7]: 327 fold |
| 1620 ± 339 nM | – | – | 2410 ± 830 nM | 268 ± 34 nM | 42.9 ± 6.8 nM | 5280 ± 319 nM | – | – | – | – | – | – | – | – | 36.1 ± 5 nM | 45 | 950 ± 350 nM | 3.3 | 146 | CCc1cc(Cl)c(OC)c(N2CCN(CC(O)CCNC(=O)c3cc4ccccc4o3)CC2)c1 (stereo not shown) [Compound 31, N-(4-(4-(3-Chloro-5-ethyl-2-methoxyphenyl)piperazin-1-yl)-3-hydroxybutyl)benzofuran-2-carboxamide] | – |
